Values joined by “and” are separate entries in the source; they are usually repeats but may differ in a detail not shown here. Equal entries are not always repeated.
Tests used:
[1] = molecular target: T1, γ-secretase (cleavage of APP, Aβ42) (Homo sapiens, UniProt P49768); assay: Aβ (1-42) cellular assay (Aβ ELISA, HEK AP-GL-T1 6 cells); format: cell-based; settings: for inhibition at 1 µM: at 1 μM (concentration in brackets), read-out: Aβ42 % Inh; for IC50: cellular Aβ42 ELISA, 24 h compound treatment
T1 construct: endogenous in cells; host or cells: HEK AP-GL-T16 luciferase reporter cells (tetracycline-induced APP substrate)
Procedure: Aβ (1-42) Cellular Assay.
The following assay was used to determine the extent to which the compounds of interest inhibit the cleavage of APP in vivo. AβELISA is a commercial fluorometric kit from Biosource (Invitrogen 89344). Luciferase reporter HEK AP-GL-T1 6 cells were plated at 50,000 cells/well in 96 well plates in DMEM media containing 10% tetracyclin free […], 250 μg/mL zeocin, 200 μg/mL hygromycin, and 5 μg/mL blasticidin. Compounds were added 24 h after plating and APP processing is induced simultaneously by addition of tetracycline. Following a 24 h compound treatment, […] of conditioned cell media is collected, mixed with ELISA diluent buffer containing 2 mM AEBSF and 12 mM o-phenanthroline, and immediately frozen at −80° C. For the ELISA, the samples were brought to room temperature and spun at 5000 rpm for 5 min. Samples ([…]) are incubated in the ELISA plate with […] detection antibody on a shaker at room temperature for 3 h. Wells were then washed 4 times with wash buffer and 100 mL of secondary antibody are added and incubated at room temperature for 30 min. Wells were again washed 4 times with wash buffer and 100 mL of fluorescent substrate solution are added. After 30 minutes of incubation, fluorescent signals are determine on a Gemini reader at ex 460 nm and em 560 nm. The amount of Aβ levels in each sample was determined from a standard curve generated by known concentrations of Aβ peptide run simultaneously with the samples.

[2] = molecular target: T2, γ-secretase (cleavage of Notch) (Homo sapiens, UniProt P49768); assay: Notch cellular assay (luciferase reporter U2OS cells); format: cell-based; settings: for IC50: U2OS luciferase reporter cells; for Notch Luc/Aβ42: ratio Notch luciferase IC50 to Aβ42 IC50
T2 construct: endogenous in cells; host or cells: U2OS luciferase reporter cells with Tet-on Notch
Procedure: This assay was used to determine if the compounds of interest inhibit the cleavage of Notch by γ-secretase in cells. A U2OS cell line in which the luciferase expression is adjusted by active Notch was used in this assay Notch expression is adjusted using Tet-on promoter. Luciferase reporter U2OS cells are plated at 1000 cells/well in 96 well plates in DMEM containing 100 μg/mL hygromycin, 15 μg/mL blasticidin and 1 μg/mL Tetracycline. Compounds were added 24 h after plating and the cells are lysed 6 days after adding compounds. Luciferase expression was performed using Steady-Glo Luciferase Assay System (Promega).

[3] = molecular target: T3, γ-secretase (Notch cleavage activity) (Homo sapiens, UniProt P49768); assay: Cleaved Notch1 Sandwich ELISA (SUP-T1 cell line); format: cell-based; settings: for IC50: SUP-T1 cells, 16 h; for Notch Elisa/Aβ42: ratio Notch Elisa IC50 to Aβ42 IC50
T3 construct: endogenous in cells; host or cells: SUP-T1 cells
Procedure: Cleaved Notch1 Sandwich ELISA.
This assay was used to determine if the compounds of interest inhibit the Notch cleavage activity of γ-secretase in SUP-T1 cell line, which endogenously expresses a truncated Notch receptor fragment that is a viable gamma-secretase substrate. The base medium for this cell line is ATCC-formulated RPMI-1640 Medium with fetal bovine serum to a final concentration of 10%. Prepare dilution of SUP-T1 cells in complete growth medium to 1.0×10^6 cells/mL, seed 1.5 mL per well of each cell dilution into a 6-well plate. Collect cells treated with serial diluted compounds in DMSO after 16 h, then using equal amount of protein isolated from samples to measure Notch intracellular cleavage by PathScan® Sandwich ELISA Kit (Cell Signaling Tech 7194S).

SMILES | inhibition at 1 µM [1] [%] | melting point [°C] | IC50 [1] | other results
O=C(O)c1ccc(CN(C2CCCCC2)S(=O)(=O)c2ccc(F)cc2)cc1 [Example 9, 4-((N-cyclohexyl-4-fluorophenylsulfonamido)methyl)benzoic acid] | 0 | 218 to 220 |  | 
COC(=O)c1ccc(CN(C2CCCCC2O)S(=O)(=O)c2ccc(Cl)cc2)cc1 (centres unmarked) [Example 25, Methyl 4-((4-chloro-N-(2-hydroxycyclohexyl)phenylsulfonamido)methyl)benzoate] |  | 162 to 164 | 17.8 nM | 
CC[C@H](C1CCCC1)N(Cc1ccc(C(=O)O)cc1)S(=O)(=O)c1ccc(Cl)cc1 [Example 23, (R)-4-((4-Chloro-N-(1-cyclopentylpropyl)phenylsulfonamido)methyl)benzoic acid] | 0 | 67 to 69 |  | 
CS(=O)(=O)c1ccc(CN(C2CCOCC2)S(=O)(=O)c2ccc(Cl)cc2)cc1 [Example 11, 4-Chloro-N-(4-(methylsulfonyl)benzyl)-N-(tetrahydro-2H-pyran-4-yl)benzene-sulfonamide] | 0 | 158 to 160 |  | 
COc1ccc(CN(C2CCOCC2)S(=O)(=O)c2ccc(Cl)cc2)cc1C(=O)O [Example 8, 5-((4-Chloro-N-(tetrahydro-2H-pyran-4-yl)phenylsulfonamido)methyl)-2-methoxy-benzoic acid] | 0 | 174 to 176 |  | 
O=C(O)c1ccc(CN(CC2CCOCC2)S(=O)(=O)c2ccc(Cl)cc2)cc1 [Example 19, 4-((4-Chloro-N-((tetrahydro-2H-pyran-4-yl)methyl)phenylsulfonamido)methyl)-benzoic acid] | 13 | 188 to 190 |  | 
O=C(O)c1ccc(CN(C2CCOCC2)S(=O)(=O)c2ccc(Cl)cc2)cc1 [Example 1, 4-((4-Chloro-N-(tetrahydro-2H-pyran-4-yl)phenylsulfonamido)methyl)benzoic acid] | 6 | 218 to 219 |  | 
COC(=O)c1ccc(CN([C@H]2CCCC[C@@H]2O)S(=O)(=O)c2ccc(Cl)cc2)cc1 [Example 31, Methyl 4-((4-chloro-N-((1S,2S)-2-hydroxycyclohexyl)phenylsulfonamido)methyl)benzoate] |  | 150 to 152 | 199 nM | 
COC(=O)c1ccc(CN(CC2CCOCC2)S(=O)(=O)c2ccc(Cl)cc2)cc1 [Example 18, Methyl 4-((4-chloro-N-((tetrahydro-2H-pyran-4-yl)methyl)phenylsulfonamido)-methyl)benzoate] | 94 | 115 to 117 |  | 
N#Cc1ccc(CN(C2CCCC2)S(=O)(=O)c2ccc(Cl)cc2)c(F)c1 [Example 28, 4-Chloro-N-(4-cyano-2-fluorobenzyl)-N-cyclopentylbenzenesulfonamide] |  | 176 to 177 | 301 nM | 
Cc1ccc(S(=O)(=O)N(Cc2ccc(C#N)cc2F)C2CCC2)cc1 [Example 27, N-(4-Cyano-2-fluorobenzyl)-N-cyclobutyl-4-methylbenzenesulfonamide] | 37 | 146 to 147 |  | 
O=C(O)c1ccc(CN(C2CCCCC2O)S(=O)(=O)c2ccc(Cl)cc2)c(F)c1F (centres unmarked) [Example 67, 4-((4-Chloro-N-(2-hydroxycyclohexyl)phenylsulfonamido)methyl)-2,3-difluorobenzoic acid] | 11 | 134 to 136 |  | 
O=S(=O)(c1ccc(Cl)cc1)N(Cc1ccc(OC2CCOCC2)nc1)C1CCOCC1 [Example 13, 4-Chloro-N-(tetrahydro-2H-pyran-4-yl)-N-((6-(tetrahydro-2H-pyran-4-yloxy)-pyridin-3-yl)methyl)benzenesulfonamide] | 0 | 123 to 125 |  | 
O=C(O)c1ccc(CN(C2CCCCC2O)S(=O)(=O)c2ccc(Cl)cc2)cc1 (centres unmarked) [Example 24, 4-((4-Chloro-N-(2-hydroxycyclohexyl)phenylsulfonamido)methyl)benzoic acid] | 51 | 218 to 219 |  | 
CC1CCCCC1N(Cc1ccc(C(=O)NC(C)(C)C(=O)O)cc1)S(=O)(=O)c1ccc(C(F)(F)F)nc1 (centres unmarked) [Example 33, 2-Methyl-2-(4-((N-(2-methylcyclohexyl)-6-(trifluoromethyl)pyridine-3-sulfonamido)methyl)benzamido)propanoicacid] | 56 | 131 to 132 |  | 
COc1ccc(CN(CC2CCOCC2)S(=O)(=O)c2ccc(Cl)cc2)cc1C(=O)O [Example 17, 5-((4-Chloro-N-((tetrahydro-2H-pyran-4-yl)methyl)phenylsulfonamido)methyl)-2-methoxybenzoic acid] | 14 | 158 to 159 |  | 
O=C(O)c1ccc(CN(C2CCCCC2)S(=O)(=O)c2ccc(Cl)cc2)c(F)c1F [Example 71, 4-((4-Chloro-N-cyclohexylphenylsulfonamido)methyl)-2,3-difluorobenzoic acid] |  | 111 to 112 | 519 nM | 
O=C(O)c1ccc(CN([C@H]2CCCC[C@@H]2O)S(=O)(=O)c2ccc(Cl)cc2)cc1 [Example 30, 4-((4-Chloro-N-((1S,2S)-2-hydroxycyclohexyl)phenylsulfonamido)methyl)benzoic acid] | 15 | 218 to 219 |  | 
COC(=O)c1cc(CN(CC2CCOCC2)S(=O)(=O)c2ccc(Cl)cc2)ccc1OC [Example 16, Methyl 5-((4-chloro-N-((tetrahydro-2H-pyran-4-yl)methyl)phenylsulfonamido)-methyl)-2-methoxybenzoate] | 0 | 118 to 119 |  | 
O=C(O)c1ccc(CN(C2CCCCC2F)S(=O)(=O)c2ccc(Cl)cc2)cc1 (single isomer, unassigned) [Example 58, 4-((4-Chloro-N-(2-fluorocyclohexyl)phenylsulfonamido)methyl)benzoic acid] |  |  | 341 nM and 686 nM and 207 nM | IC50 [2]: 259000 nM; Notch Luc/Aβ42 ([2]; listed as 58/1231A): 630; IC50 [3]: 10100 nM; Notch Elisa/Aβ42 ([3]; listed as 58/1231A): 25
CSc1ccc(CN(C2CCOCC2)S(=O)(=O)c2ccc(Cl)cc2)cc1 [Example 10, 4-Chloro-N-(4-(methylthio)benzyl)-N-(tetrahydro-2H-pyran-4-yl)benzene-sulfonamide] | 0 | 124 to 127 |  | 
CC(=O)CNC(=O)c1ccc(CN(C2CCCCC2C)S(=O)(=O)c2ccc(Cl)cc2)cc1 (centres unmarked) [Example 48, 4-((4-Chloro-N-(2-methylcyclohexyl)phenylsulfonamido)methyl)-N-(2-oxopropyl)benzamide] |  |  | 0.715 nM | IC50 [2]: 182 nM; Notch Luc/Aβ42 [2]: 260; IC50 [3]: 220 nM; Notch Elisa/Aβ42 [3]: 314
COC[C@@H](C)NC(=O)c1ccc(CN(C2CCCCC2C)S(=O)(=O)c2ccc(Cl)cc2)cc1 (stereo partly drawn) [Example 46, 4-((4-Chloro-N-(2-methylcyclohexyl)phenylsulfonamido)methyl)-N-((R)-1-methoxypropan-2-yl)benzamide] |  |  | 0.7 nM | IC50 [2]: 303 nM; Notch Luc/Aβ42 ([2]; listed as 46/1221): 432; IC50 [3]: 710 nM
O=C(O)c1ccc(CN(C2CCCCC2F)S(=O)(=O)c2ccc(Cl)cc2)cc1 (centres unmarked) [Example 57, 4-((4-Chloro-N-(2-fluorocyclohexyl)phenylsulfonamido)methyl)benzoic acid] |  |  | 50.1 nM and 79.6 nM and 98.5 nM | IC50 [2]: 28600 nM; Notch Luc/Aβ42 ([2]; listed as 57/1231): 376; IC50 [3]: 1070 nM; Notch Elisa/Aβ42 ([3]; listed as 57/1231): 14

Reference: patent US20140243374A1, “Novel Sulfonamides” (The Brigham and Women's Hospital, Inc., priority 2011, published 2014)
